System: patients of Parkinson's disease experiencing motor fluctuations
Assay: Multivariate logistic regression analysis of patient baseline factors associated with efficacy of istradefylline (odds ratios)
Assay type: in vivo, human
Procedure: The cut-off value for the treatment effect used to determine the efficacy of istradefylline was defined as a reduction in OFF time (1 hour or longer), an increase in ON time without troublesome dyskinesia (1 hour or longer), and an improvement in UPDRS Part III score (3 points or more) from the clinically meaningful point of view. […] Further, with respect to the UPDRS Part II score at OFF state, an improvement of 1 point or more from the sensitivity/(1-specificity) curve (ROC curve) using the UPDRS Part II score and the CGI-I score was defined as the cut-off of the effect.
The study of baseline factors having a favorable effect on the respective outcomes of the efficacy of istradefylline was performed by multivariate logistic regression analysis controlling for 12 baseline factors, which were expressed as the odds ratio (OR) and 95% confidence interval (CI). The efficacy outcomes included daily OFF time, ON time without troublesome dyskinesia, UPDRS Part III score at ON state, CGI-I, and UPDRS Part II score at OFF state. As covariates in the logistic regression analysis, age, sex, the presence or absence of dyskinesia history (determined based on the patient diary at baseline), mean daily OFF time, total UPDRS Part III score, mH&Y score at ON state and OFF state, concomitant drugs, duration of Parkinson's disease (duration of PD), duration of motor complications, L-DOPA dose, and levodopa-equivalent dose were used.
In this study, with respect to the outcomes under the treatment with istradefylline, analysis of baseline factors associated with expressing a more favorable effect was performed according to the following three steps. First, interactions between the treatment with istradefylline (two doses: 20 mg and 40 mg) and 12 baseline factors were evaluated based on type III p-value by multivariate logistic regression analysis (an index for evaluating whether or not the heterogeneity (interaction) occurs in the association between the treatment and the outcome due to a certain baseline factor). As the second step, an odds ratio (OR) was estimated for the baseline factor associated with the achievement of a more favorable effect according to the dose group of istradefylline if a significant interaction is observed between the treatment with istradefylline and the baseline factor. In addition, OR was estimated for the baseline factor associated with the achievement of a more favorable effect in all patient groups if an interaction is not observed between the treatment with istradefylline and the baseline factor.
A two-tailed p value <0.05 and an interaction p value <0.10 were determined to be statistically significant. All analyses were performed using SAS software version 9.2 or 9.3 (SAS Institute, Inc., Cary, N.C., USA).

[1] = age ≥65 vs <65 y (ref), 20 and 40 mg/day together
[2] = baseline UPDRS Part III score ≥20 vs <20 (ref), 20 and 40 mg/day together
[3] = baseline m Hoehn & Yahr scale at OFF state ≥3 vs <3 (ref), 20 and 40 mg/day together
[4] = baseline mean daily OFF time 4 to <8 h vs <4 h (ref), 20 mg/day
[5] = baseline mean daily OFF time 4 to <8 h vs <4 h (ref), 40 mg/day
[6] = baseline mean daily OFF time 4 to <8 h vs <4 h (ref), 20 and 40 mg/day together
[7] = baseline mean daily OFF time ≥8 h vs <4 h (ref), 20 mg/day
[8] = baseline mean daily OFF time ≥8 h vs <4 h (ref), 40 mg/day
[9] = baseline mean daily OFF time ≥8 h vs <4 h (ref), 20 and 40 mg/day together

CCn1c(=O)c2c(nc(/C=C/c3ccc(OC)c(OC)c3)n2C)n(CC)c1=O [istradefylline]
Odds ratio, increase in ON time without troublesome dyskinesia (1 hour or longer) (age ≥65 vs <65 y (ref), 20 mg/day): 1.47
Odds ratio, increase in ON time without troublesome dyskinesia (1 hour or longer) (age ≥65 vs <65 y (ref), 40 mg/day): 2.88
Odds ratio, OFF time reduction (1 hour or longer) [1]: 2.65
Odds ratio, improvement in CGI-I (very much, much or minimally improved) [1]: 1.17
Odds ratio, improvement in UPDRS Part II score (OFF) [1]: 0.90
Odds ratio, improvement in UPDRS Part III score (3 points or more) [1]: 0.65
Odds ratio, OFF time reduction (1 hour or longer) [2]: 0.88
Odds ratio, improvement in CGI-I (very much, much or minimally improved) [2]: 1.49
Odds ratio, improvement in UPDRS Part II score (OFF) [2]: 0.79
Odds ratio, improvement in UPDRS Part III score (3 points or more) [2]: 2.79
Odds ratio, increase in ON time without troublesome dyskinesia (1 hour or longer) [2]: 0.97
Odds ratio, improvement in UPDRS Part II score (OFF) (baseline m Hoehn & Yahr scale at OFF state ≥3 vs <3 (ref), 20 mg/day): 0.99
Odds ratio, improvement in UPDRS Part II score (OFF) (baseline m Hoehn & Yahr scale at OFF state ≥3 vs <3 (ref), 40 mg/day): 3.50
Odds ratio, OFF time reduction (1 hour or longer) [3]: 0.63
Odds ratio, improvement in CGI-I (very much, much or minimally improved) [3]: 1.89
Odds ratio, improvement in UPDRS Part III score (3 points or more) [3]: 1.81
Odds ratio, increase in ON time without troublesome dyskinesia (1 hour or longer) [3]: 0.60
Odds ratio, OFF time reduction (1 hour or longer) [4]: 1.27
Odds ratio, increase in ON time without troublesome dyskinesia (1 hour or longer) [4]: 1.09
Odds ratio, OFF time reduction (1 hour or longer) [5]: 1.58
Odds ratio, increase in ON time without troublesome dyskinesia (1 hour or longer) [5]: 0.58
Odds ratio, improvement in CGI-I (very much, much or minimally improved) [6]: 1.09
Odds ratio, improvement in UPDRS Part II score (OFF) [6]: 1.00
Odds ratio, improvement in UPDRS Part III score (3 points or more) [6]: 0.85
Odds ratio, OFF time reduction (1 hour or longer) [7]: 1.57
Odds ratio, increase in ON time without troublesome dyskinesia (1 hour or longer) [7]: 1.19
Odds ratio, OFF time reduction (1 hour or longer) [8]: 6.68
Odds ratio, increase in ON time without troublesome dyskinesia (1 hour or longer) [8]: 2.38
Odds ratio, improvement in CGI-I (very much, much or minimally improved) [9]: 0.85
Odds ratio, improvement in UPDRS Part II score (OFF) [9]: 0.98
Odds ratio, improvement in UPDRS Part III score (3 points or more) [9]: 0.53
